PubChem BioAssay (NCI)
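96-well plates; 48 h exposure; 5 concentrations. Endpoints by linear interpolation between flanking doses. Not reached: highest tested concentration assigned. The concentration for 50% growth inhibition is given as GI50. TGI: concentration producing complete growth inhibition.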 Where a SMILES comes first, the peptide text is derived from it. The star is where a group is joined. Boc = CC(C)(C)OC(=O)*; Bn = c1ccc(C*)cc1

Experiments:
Assay in all cases: growth of human tumour cells (NCI), 48 h
[1] = tested on: A549 NSCLC
[2] = tested on: HOP-62 NSCLC
[3] = tested on: IGROV1 ovarian
[4] = tested on: MDA-MB-435
[5] = tested on: RPMI-8226 leukemia
[6] = tested on: SF-539 CNS
[7] = tested on: SK-MEL-5 melanoma
[8] = tested on: SR leukemia
[9] = tested on: SW-620 colon
[10] = tested on: U251 CNS
[11] = tested on: UACC-62 melanoma
[12] = tested on: CCRF-CEM leukemia

SMILES	TGI [1]	TGI [2]	TGI [3]	TGI [4]	TGI [5]	TGI [6]	TGI [7]	TGI [8]	TGI [9]	TGI [10]	TGI [11]	TGI [12]	GI50 [7]	GI50 [10]
COC(=O)/C(C#N)=C(/NCc1ccccc1)Nc1ccccc1	> 100 µM	> 100 µM	> 100 µM	> 100 µM	> 100 µM	> 100 µM	> 100 µM	> 100 µM	> 100 µM	> 100 µM	–	–	–	–
CC[C@H]1C=CCC[C@@]2(C[C@@H]3CC[C@H]4[C@@H](C(=O)OCCCCCCCCCCCCCCCC(=O)N(CCCNC(C)=O)C[C@H](CCNC(C)=O)OC(C)=O)[C@@]5(CCC[C@@H](C)O5)NC(=[N+]34)N2)O1	3.42 µM	3.42 µM	2.66 µM	3 µM	0.554 µM	2.87 µM	2.57 µM	3.35 µM	3.25 µM	2.11 µM	3.52 µM	–	–	–
Cn1nc(S(N)(=O)=O)s/c1=N/S(=O)(=O)c1ccc(N)cc1	> 100 µM	> 100 µM	–	–	> 100 µM	> 100 µM	–	–	> 100 µM	> 100 µM	> 100 µM	–	–	–
CCOC(=O)CNC(=O)CNC(=O)CNC(=O)CNNc1c(OCc2ccccc2)c(=O)c1=O	> 100 µM	> 100 µM	> 100 µM	> 100 µM	> 100 µM	–	> 100 µM	–	> 100 µM	> 100 µM	> 100 µM	> 100 µM	–	–
Brc1ccc(N=Nc2ccc3ccccc3n2)cc1	> 100 µM	–	65.5 µM	> 100 µM	> 100 µM	55.2 µM	> 100 µM	–	> 100 µM	36.2 µM	43.5 µM	> 100 µM	–	–
O=C1CC2(CCNCC2)C(=O)N1N1CCCCC1	> 100 µM	> 100 µM	> 100 µM	–	> 100 µM	> 100 µM	> 100 µM	> 100 µM	> 100 µM	> 100 µM	> 100 µM	> 100 µM	–	–
COc1cccc(N2C(=O)C3c4[nH]c5ccc(C)cc5c4C4CCC(C)CC4C3C2=O)c1 (stereo not given)	> 100 µM	42.6 µM	> 100 µM	> 100 µM	> 100 µM	> 100 µM	> 100 µM	–	> 100 µM	> 100 µM	> 100 µM	> 100 µM	–	–
Cc1cc(C)nc(NS(=O)(=O)c2ccc(Nc3nnc(/C=C/c4c(O)ccc5ccccc45)c(=O)n3N)cc2)n1	> 100 µM	> 100 µM	> 100 µM	57.6 µM	> 100 µM	–	–	55.6 µM	> 100 µM	–	60.1 µM	> 100 µM	–	–
O=C(Nc1ccccc1[N+](=O)[O-])C(=O)C(C(=O)c1ccccc1-c1ccccc1)C1OC(=O)c2ccccc21 (stereo not given)	72.6 µM	36 µM	51.3 µM	–	78.3 µM	29.2 µM	32.7 µM	49 µM	36.7 µM	24.2 µM	32.8 µM	76.1 µM	–	–
CC(C)N(C(=O)C12C3(C(=O)C(C)(C)C)C4C5(C#N)C3C1(C(=O)C(C)(C)C)C5C42C(=O)C(C)(C)C)C(C)C (stereo not given)	> 100 µM	> 100 µM	> 100 µM	> 100 µM	–	> 100 µM	> 100 µM	> 100 µM	> 100 µM	> 100 µM	> 100 µM	> 100 µM	–	–
CC1(C)CC2C(/C1=N/O)C1(C)CCCC2(C)C1O (stereo not given)	> 100 µM	> 100 µM	> 100 µM	> 100 µM	> 100 µM	–	> 100 µM	> 100 µM	> 100 µM	> 100 µM	> 100 µM	> 100 µM	–	–
CC(C)(C)Cc1cc(O)ccc1O	> 100 µM	> 100 µM	> 100 µM	> 100 µM	–	> 100 µM	–	> 100 µM	> 100 µM	> 100 µM	> 100 µM	93.9 µM	–	–
C/C(=C(/C)c1cc[n+](C)cc1)c1cc[n+](C)cc1	> 75 µM	> 75 µM	> 75 µM	–	> 75 µM	> 75 µM	> 75 µM	–	–	> 75 µM	> 75 µM	> 75 µM	–	–
C=CCN(N=O)C(=O)N(CCCCC(NC(C)=O)C(=O)NCc1ccccc1)Cc1ccccc1 (stereo not given)	> 100 µM	> 100 µM	> 100 µM	–	41.9 µM	> 100 µM	30 µM	–	> 100 µM	> 100 µM	> 100 µM	80.4 µM	–	–
Cc1ccc(S(=O)(=O)NC(=O)NCC(N)=O)cc1	> 100 µM	> 100 µM	> 100 µM	–	> 100 µM	> 100 µM	> 100 µM	–	> 100 µM	> 100 µM	> 100 µM	> 100 µM	–	–
O=C(NN1C(=O)C(Cl)C1c1cccc(Cl)c1)c1ccccc1O (stereo not given)	> 100 µM	–	> 100 µM	–	–	> 100 µM	> 100 µM	–	–	> 100 µM	> 100 µM	> 100 µM	–	–
C=CC[C@@]12CCC(=O)C=C1CCCC2=O	> 100 µM	> 100 µM	> 100 µM	> 100 µM	> 100 µM	> 100 µM	> 100 µM	> 100 µM	> 100 µM	> 100 µM	> 100 µM	–	–	–
O=C(/C=C/c1ccccc1Br)c1ccccc1	25.3 µM	26.2 µM	9.91 µM	6.57 µM	–	15.6 µM	22.6 µM	–	3.02 µM	2.9 µM	23.6 µM	3.85 µM	–	–
Cc1ncc([N+](=O)[O-])n1CCNC(=O)Cn1ccnc1[N+](=O)[O-]	> 100 µM	> 100 µM	> 100 µM	> 100 µM	–	> 100 µM	> 100 µM	> 100 µM	> 100 µM	> 100 µM	> 100 µM	> 100 µM	–	–
CC(CC(C)[C@H]1CCC2[C@H]3C(CC(=O)[C@@]21C)[C@@]1(C)CCC(O)C[C@H]1C[C@@H]3O)C(=O)O (stereo not given in full)	> 100 µM	> 100 µM	> 100 µM	> 100 µM	> 100 µM	> 100 µM	–	> 100 µM	> 100 µM	> 100 µM	> 100 µM	> 100 µM	–	–

SMILES	TGI [1]	TGI [2]	TGI [3]	TGI [4]	TGI [5]	TGI [6]	TGI [7]	TGI [8]	TGI [9]	TGI [10]	TGI [11]	TGI [12]	GI50 [7]	GI50 [10]
COC(=O)/C=C/c1ccc2c(c1)[C@H](C(=O)OC)[C@@H](c1ccc(O)cc1)O2	> 100 µM	> 100 µM	> 100 µM	16.2 µM	–	> 100 µM	28.1 µM	45.8 µM	> 100 µM	> 100 µM	> 100 µM	78 µM	–	–
COc1ccc2cc(/C=N\NC(=O)Nc3ccc([N+](=O)[O-])cc3)ccc2c1	18.5 µM	41.6 µM	23.2 µM	25.1 µM	29.1 µM	18.3 µM	17.7 µM	–	> 31.6 µM	26.6 µM	19.2 µM	–	–	–
CN1C(=O)C(C#N)C2C[C@@]1(C)Oc1ccccc12 (stereo not given in full)	> 100 µM	> 100 µM	> 100 µM	> 100 µM	> 100 µM	–	> 100 µM	–	> 100 µM	> 100 µM	> 100 µM	> 100 µM	–	–
CC(C)=CC[C@H]1C[C@@]2(CC=C(C)C)C(=O)/C(=C(/O)c3ccccc3)C(=O)[C@](CC=C(C)C)(C2=O)C1(C)C	23.7 µM	29.3 µM	20.3 µM	26.2 µM	> 100 µM	48 µM	17.8 µM	> 100 µM	54.9 µM	20.8 µM	13.6 µM	–	–	–
C/C(CC(=O)Nc1ccccc1)=N\NC(N)=S	> 100 µM	> 100 µM	> 100 µM	–	> 100 µM	> 100 µM	> 100 µM	–	> 100 µM	> 100 µM	> 100 µM	> 100 µM	–	–
CC(=O)OC1CC2C(C)(C)OC(=O)CC(OC(C)=O)[C@]2(C)C2CCC3(C)C(=CCC3c3ccoc3)[C@]12C (stereo not given in full)	> 100 µM	96.6 µM	82.8 µM	–	> 100 µM	93.3 µM	> 100 µM	50.8 µM	> 100 µM	> 100 µM	> 100 µM	87.3 µM	–	–
O=C1COc2cc3c(cc2N1)SCCC(=O)N3	> 100 µM	> 100 µM	> 100 µM	–	> 100 µM	> 100 µM	> 100 µM	> 100 µM	> 100 µM	–	> 100 µM	> 100 µM	–	–
CC(C)(C)OC(=O)NC(Cc1ccc(OCc2ccccc2)cn1)C(=O)O (stereo not given)	> 100 µM	> 100 µM	> 100 µM	> 100 µM	> 100 µM	> 100 µM	> 100 µM	> 100 µM	> 100 µM	> 100 µM	–	–	–	–
COC1=CC(=O)c2c(n[nH]c2CCNC(=O)OCc2ccccc2)C1=O	40.4 µM	37.2 µM	29 µM	4 µM	39.1 µM	34.1 µM	13 µM	65.5 µM	36.8 µM	26 µM	19.9 µM	–	–	–
O=c1cc(-c2ccc3ccccc3c2)[nH]c2ncccc12	> 100 µM	> 100 µM	> 100 µM	–	60.7 µM	64.9 µM	16.5 µM	6.1 µM	> 100 µM	> 100 µM	> 100 µM	> 100 µM	3.46 µM	4.35 µM
O=c1[nH]c2cc3[nH]c(=O)c(=O)[nH]c3cc2[nH]c1=O	> 100 µM	–	> 100 µM	> 100 µM	> 100 µM	> 100 µM	> 100 µM	–	> 100 µM	> 100 µM	> 100 µM	> 100 µM	–	–
COC(=O)C1=C(C(=O)OC)C(OO)(c2ccccc2)OC1=O (stereo not given)	> 100 µM	–	> 100 µM	> 100 µM	–	> 100 µM	> 100 µM	> 100 µM	> 100 µM	> 100 µM	> 100 µM	> 100 µM	–	–
COC(=O)C1Cc2c([nH]c3ccccc23)-c2[nH]c3ccccc3c2CC(NC(C)=O)C(=O)NCC(=O)NCC(=O)N1 (stereo not given)	> 100 µM	> 100 µM	> 100 µM	> 100 µM	> 100 µM	> 100 µM	> 100 µM	–	> 100 µM	> 100 µM	> 100 µM	> 100 µM	–	–
O=c1[nH]cc(COCC(O)CO)c(=O)[nH]1 (stereo not given)	> 100 µM	> 100 µM	> 100 µM	–	> 100 µM	> 100 µM	> 100 µM	–	> 100 µM	> 100 µM	> 100 µM	> 100 µM	–	–
O=C1OC(C2Cc3ccc4c(c3C2=O)CCCC4)c2ccccc21 (stereo not given)	> 100 µM	> 100 µM	> 100 µM	> 100 µM	> 100 µM	66.7 µM	84.7 µM	–	> 100 µM	> 100 µM	69.9 µM	> 100 µM	–	–
COC(=O)C(CC(C)C)NC(=O)CNC(=O)C(Cc1ccc(OCc2ccccc2)cc1)NC(=O)C(COCc1ccccc1)NC(=O)OC(C)(C)C (stereo not given) (Boc-S(Bn)Y(Bn)GL-OMe; configuration not given here)	> 100 µM	> 100 µM	> 100 µM	> 100 µM	> 100 µM	> 100 µM	> 100 µM	> 100 µM	> 100 µM	> 100 µM	> 100 µM	–	–	–
Oc1ccc2ccccc2c1NCn1nc(CCCCCCCCc2nn(CNc3c(O)ccc4ccccc34)c(=S)o2)oc1=S	> 100 µM	> 100 µM	> 100 µM	> 100 µM	> 100 µM	–	> 100 µM	–	> 100 µM	> 100 µM	> 100 µM	–	–	–
Cn1c(-c2cccs2)cc(-c2ccsc2)c1-c1cccs1	> 100 µM	> 100 µM	> 100 µM	> 100 µM	–	> 100 µM	–	> 100 µM	> 100 µM	> 100 µM	> 100 µM	> 100 µM	–	–
O=C(/C=N/O)Nc1ccc(Cl)c(I)c1	94 µM	70.7 µM	39.2 µM	–	77.8 µM	–	35.2 µM	61.2 µM	> 100 µM	39.4 µM	35.4 µM	94.8 µM	–	–
O=S1(=O)c2ccccc2-c2nccc3ccnc1c23	–	> 100 µM	> 100 µM	> 100 µM	85.6 µM	> 100 µM	27.7 µM	–	> 100 µM	> 100 µM	31.7 µM	> 100 µM	–	–
